Source: ChEMBL document CHEMBL1201862, “PubChem BioAssay data set” (2004)
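Method: 48-hour compound exposure of cells in 96-well plates, five concentrations, linear interpolation of endpoints. GI50 = concentration required for 50% inhibition of growth.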 The source made the active and inactive calls. No stated cut-off is given here; in the data, active = GI50 up to about 1.1 µM and inactive = higher.

What was measured:
Assay in all cases: NCI tumour cell line growth inhibition, 48 h
TK-10 = tested on: TK-10
ACHN = tested on: ACHN
MDA-MB-231 = tested on: MDA-MB-231
SK-MEL-28 = tested on: SK-MEL-28
PC-3 = tested on: PC-3
M14 = tested on: M14
KM12 = tested on: KM12
MDA-MB-435 = tested on: MDA-MB-435
786-0 = tested on: 786-0
NCI-H23 = tested on: NCI-H23
UACC-62 = tested on: UACC-62
IGROV-1 = tested on: IGROV-1
LOX IMVI = tested on: LOX IMVI
SF-539 = tested on: SF-539
OVCAR-8 = tested on: OVCAR-8
SK-OV-3 = tested on: SK-OV-3
SK-MEL-2 = tested on: SK-MEL-2
Hs-578T = tested on: Hs-578T
HL-60 = tested on: HL-60
SW-620 = tested on: SW-620
DU-145 = tested on: DU-145
Malme-3M = tested on: Malme-3M
CCRF-CEM = tested on: CCRF-CEM
SK-MEL-5 = tested on: SK-MEL-5
T47D = tested on: T47D
SNB-19 = tested on: SNB-19
HT-29 = tested on: HT-29
HOP-92 = tested on: HOP-92
SF-268 = tested on: SF-268
NCI-H460 = tested on: NCI-H460
SF-295 = tested on: SF-295
NCI-H226 = tested on: NCI-H226
SNB-75 = tested on: SNB-75
CAKI-1 = tested on: CAKI-1
HCT-116 = tested on: HCT-116
OVCAR-5 = tested on: OVCAR-5
OVCAR-3 = tested on: OVCAR-3
HCT-15 = tested on: HCT-15
NCI/ADR-RES = tested on: NCI/ADR-RES
HCC 2998 = tested on: HCC 2998
UO-31 = tested on: UO-31
U-251 = tested on: U-251
RXF 393 = tested on: RXF 393
K562 = tested on: K562
SR = tested on: SR
NCI-H522 = tested on: NCI-H522
MOLT-4 = tested on: MOLT-4
OVCAR-4 = tested on: OVCAR-4
HOP-62 = tested on: HOP-62
A498 = tested on: A498
UACC-257 = tested on: UACC-257
COLO 205 = tested on: COLO 205
EKVX = tested on: EKVX
MDA-N = tested on: MDA-N
A549 = tested on: A549
SN12C = tested on: SN12C
MCF7 = tested on: MCF7

`COc1ccc2cc3[n+](cc2c1OC)CCc1cc2c(cc1-3)OCO2` was tested, and the GI50 (TK-10) was 85.5 µM (inactive), the GI50 (ACHN) was > 100 µM (inactive) and the GI50 (MDA-MB-231) was 21.5 µM (inactive). The GI50 (SK-MEL-28) was 14.7 µM (inactive), the GI50 (PC-3) was 20.3 µM (inactive) and the GI50 (M14) was 39.8 µM (inactive). The GI50 (KM12) was 6.11 µM (inactive), the GI50 (MDA-MB-435) was 12.6 µM (inactive) and the GI50 (786-0) was 45 µM (inactive). The GI50 (NCI-H23) was 7.93 µM (inactive), the GI50 (UACC-62) was 16 µM (inactive) and the GI50 (IGROV-1) was 55.5 µM (inactive). The GI50 (LOX IMVI) was 59.6 µM (inactive), the GI50 (SF-539) was 52.2 µM (inactive) and the GI50 (OVCAR-8) was 16.8 µM (inactive). For the same molecule, the GI50 (SK-OV-3) was 78 µM (inactive), the GI50 (SK-MEL-2) was 23.8 µM (inactive) and the GI50 (Hs-578T) was 11.3 µM (inactive). The GI50 (HL-60) was 18.2 µM (inactive), the GI50 (SW-620) was 55.3 µM (inactive) and the GI50 (DU-145) was 35.7 µM (inactive). The GI50 (Malme-3M) was 7.6 µM (inactive), the GI50 (CCRF-CEM) was 18.4 µM (inactive) and the GI50 (SK-MEL-5) was 4.78 µM (inactive). The GI50 (T47D) was 5.26 µM (inactive), the GI50 (SNB-19) was 5.69 µM (inactive) and the GI50 (HT-29) was 38.8 µM (inactive). For the same molecule, the GI50 (HOP-92) was 24.5 µM (inactive), the GI50 (SF-268) was 6.75 µM (inactive) and the GI50 (NCI-H460) was 14.9 µM (inactive).
With `O=C(O)CCC(NC(=O)c1ccc(CNc2nc3cc(C(F)(F)F)ccc3nc2C(=O)O)cc1)C(=O)O` (stereo not drawn) the GI50 (SF-295) was > 100 µM (inactive), the GI50 (TK-10) was > 100 µM (inactive) and the GI50 (ACHN) was > 100 µM (inactive). The GI50 (NCI-H226) was > 100 µM (inactive), the GI50 (SNB-75) was > 100 µM (inactive) and the GI50 (SK-MEL-28) was > 100 µM (inactive). The GI50 (CAKI-1) was > 100 µM (inactive), the GI50 (HCT-116) was > 100 µM (inactive) and the GI50 (PC-3) was > 100 µM (inactive). For the same molecule, the GI50 (M14) was > 100 µM (inactive), the GI50 (OVCAR-5) was > 100 µM (inactive) and the GI50 (OVCAR-3) was > 100 µM (inactive). The GI50 (KM12) was > 100 µM (inactive), the GI50 (MDA-MB-435) was > 100 µM (inactive) and the GI50 (786-0) was > 100 µM (inactive). The GI50 (HCT-15) was greater than 100 µM, the GI50 (NCI-H23) was > 100 µM (inactive) and the GI50 (UACC-62) was > 100 µM (inactive). The GI50 (NCI/ADR-RES) was > 100 µM (inactive), the GI50 (HCC 2998) was > 100 µM (inactive) and the GI50 (UO-31) was > 100 µM (inactive). For the same molecule, the GI50 (IGROV-1) was > 100 µM (inactive), the GI50 (LOX IMVI) was > 100 µM (inactive) and the GI50 (SF-539) was > 100 µM (inactive). The GI50 (OVCAR-8) was > 100 µM (inactive), the GI50 (U-251) was > 100 µM (inactive) and the GI50 (SK-OV-3) was > 100 µM (inactive). For the same molecule, the GI50 (RXF 393) was > 100 µM (inactive), the GI50 (K562) was > 100 µM (inactive) and the GI50 (SK-MEL-2) was > 100 µM (inactive). For the same molecule, the GI50 (SR) was > 100 µM (inactive), the GI50 (NCI-H522) was > 100 µM (inactive) and the GI50 (MOLT-4) was > 100 µM (inactive). The GI50 (HL-60) was > 100 µM (inactive), the GI50 (SW-620) was > 100 µM (inactive) and the GI50 (OVCAR-4) was > 100 µM (inactive). The GI50 (DU-145) was > 100 µM (inactive), the GI50 (HOP-62) was > 100 µM (inactive) and the GI50 (Malme-3M) was > 100 µM (inactive). For the same molecule, the GI50 (CCRF-CEM) was > 100 µM (inactive), the GI50 (A498) was > 100 µM (inactive) and the GI50 (UACC-257) was > 100 µM (inactive). For the same molecule, the GI50 (COLO 205) was > 100 µM (inactive), the GI50 (T47D) was > 100 µM (inactive) and the GI50 (SNB-19) was > 100 µM (inactive). For the same molecule, the GI50 (HT-29) was > 100 µM (inactive), the GI50 (HOP-92) was > 100 µM (inactive) and the GI50 (EKVX) was > 100 µM (inactive). The GI50 (SF-268) was > 100 µM (inactive), the GI50 (MDA-N) was > 100 µM (inactive) and the GI50 (NCI-H460) was > 100 µM (inactive). The GI50 (A549) was > 100 µM (inactive).
For `NS(=O)(=O)c1ccc(/C=C/c2ccc(F)cc2)cc1`, the GI50 (SF-295) was 28.9 µM (inactive), the GI50 (TK-10) was 21.3 µM (inactive) and the GI50 (MDA-MB-231) was 9.53 µM (inactive). For the same molecule, the GI50 (SNB-75) was 31.6 µM (inactive), the GI50 (SK-MEL-28) was 47.4 µM (inactive) and the GI50 (SN12C) was 25.8 µM (inactive). The GI50 (HCT-116) was 16.9 µM (inactive), the GI50 (PC-3) was 39 µM (inactive) and the GI50 (M14) was 79.4 µM (inactive). For the same molecule, the GI50 (OVCAR-5) was > 100 µM (inactive), the GI50 (OVCAR-3) was 16.7 µM (inactive) and the GI50 (MCF7) was 23.9 µM (inactive). For the same molecule, the GI50 (786-0) was 21.2 µM (inactive), the GI50 (NCI/ADR-RES) was 26.3 µM (inactive) and the GI50 (HCC 2998) was 51.8 µM (inactive). For the same molecule, the GI50 (UO-31) was 20.7 µM (inactive), the GI50 (SK-OV-3) was 23.8 µM (inactive) and the GI50 (RXF 393) was 15.6 µM (inactive). The GI50 (SK-MEL-2) was 20.7 µM (inactive), the GI50 (SW-620) was 17.1 µM (inactive) and the GI50 (DU-145) was 50.1 µM (inactive). For the same molecule, the GI50 (HOP-62) was 34 µM (inactive), the GI50 (Malme-3M) was 40.5 µM (inactive) and the GI50 (A498) was 29.4 µM (inactive). For the same molecule, the GI50 (UACC-257) was > 100 µM (inactive), the GI50 (COLO 205) was 24.8 µM (inactive) and the GI50 (T47D) was 14.9 µM (inactive). For the same molecule, the GI50 (SNB-19) was 33.9 µM (inactive), the GI50 (EKVX) was 47.3 µM (inactive) and the GI50 (MDA-N) was 43.5 µM (inactive). The GI50 (NCI-H460) was 23.5 µM (inactive).
